{"source": "patent US7390508B2", "about": "“Use of xenon with hypothermia for treating neonatal asphyxia” (Protexeon Limited, priority 2003, dated 2008)", "key": {"[1]": {"tested_on": "p7 Sprague-Dawley rat pups", "assay": "7-day-old rat model of focal HI, treatment 4 h post-insult, cresyl violet histology of apoptotic, necrotic and viable cells (Example 2)", "format": "in vivo", "from_the_text": "p7 Sprague-Dawley rat pups (weighing between 10 and 14 g) from Harlan, U.K. were subjected to a previously described model of HI injury (Levine, 1960; Rice et al, 1981). In brief, rat pups were anaesthetised with 2% isoflurane before undergoing permanent unilateral ligation of the right common carotid artery, using a midline neck incision and 5.0 silk suture. Once surgery was complete, pups recovered from the anaesthesia and were then returned to the dam until the time of experimentation.\n1 hr after surgery, pups were exposed to hypoxia by placing them into purpose-built, airtight chambers that were partially submerged in a 37° C. water bath (FIG. 9). […] Hypoxia was induced by a continuous flow of humidified 8% oxygen, balanced with nitrogen, and this mixture was monitored every 15 minutes by a Datex Ohmeda (Bradford, U.K.). (All gases were supplied by BOC.)\nFollowing HI, pups were returned to the dam for 4 hrs to recover, after which time they were subjected to 90 minutes of one of the experimental interventions below. […] No significant difference existed between the two time periods and thus 4 h post-insult was chosen as the time to apply the intervention, as it was thought to be the most clinically relevant.\nPups were returned to their mothers until sacrifice at 16, 24 and 48 h following treatment (Northington et al, 2001) (FIG. 10).\nThe same experimental paradigm was followed for treatment with xenon, but instead of hypothermia, the water bath was maintained at 37° C. and the gas mixture was changed to 25% oxygen and 75% xenon for 90 minutes. Gas was delivered into a purpose-built, closed system to minimise xenon leakage (FIG. 9). Once again, the pups were returned to their mothers until sacrifice.\nIn the combination paradigm, the rats underwent both hypothermia and xenon concurrently for 90 minutes. Again, the pups were placed in airtight chambers, but on this occasion, their temperatures were maintained at 35° C. and the gas mixture consisted of 25% oxygen, only 20% xenon and balanced nitrogen. This temperature and xenon concentration was shown in preliminary experiments, to confer no neuroprotective benefit to the developing brain when used independently. Thus, by using these values, any neuroprotective benefit at all is indicative of synergy between the two agents. Following treatment, pups were returned to their mothers until sacrifice.\nNeuronal injury was assessed by histological analysis of paraffin brain slices stained with cresyl violet. Cresyl violet is a basic stain that binds to acidic components of neuronal cytoplasm such as RNA-rich ribosomes, and also the nuclei and nucleoli of nerve cells.\nEach experimental group consisted of three time groups (16, 24, 48 h), and each time group contained three animals, (thus there were nine animals in total for each experimental group). Three slides per animal were chosen from the area of the brain that was −3.6 mm from the bregma (FIG. 11). Slides were then sorted into time groups and the examiner was blinded to the intervention.\nTwo areas from the ipsilateral side of each brain were analysed using a BX60 light microscope (Olympus, Southall, U.K.)—one in the cortex and one in the gyrus of the hippocampus (FIG. 11). A 40× objective lens with a grid was used to count the total number of cells that appeared in the grid. Cells were scored as either viable, apoptotic, or necrotic based on their morphological appearance, and the percentage of each cell type was noted down for each of the brain areas. An Axiocam digital camera (Zeiss, Göttingen, Germany) was used along with the microscope to take photomicrographs of the brain slices.\nThe criteria for assigning cells to each category was as follows (FIG. 12): • 1. Cells undergoing either type of cell death (apoptosis or necrosis) took up the cresyl violet stain more intensely than viable cells, which were regularly shaped with pale cytoplasm, and a clearly visible, darker nucleus. • 2. […]"}, "[2]": {"assay": "xenon dissolved or dispersed in lipid emulsion", "format": "physicochemical", "details": "20° C. and normal pressure", "procedure": "It has been established that appreciable amounts of xenon maybe added to a lipid emulsion. Even by the simplest means, at 20° C. and normal pressure, xenon can be dissolved or dispersed in concentrations of 0.2 to 10 ml or more per ml of emulsion. The concentration of dissolved gas is dependent on a number of factors, including temperature, pressure and the concentration of lipid."}, "neuronal cultures": {"tested_on": "neuronal cultures", "assay": "oxygen-glucose deprivation (OGD)-induced lactate dehydrogenase (LDH) release in neuronal cultures", "format": "cell-based", "details": "for ED50 for xenon, OGD-induced LDH release: 75 minutes OGD, 6 hours of recovery, xenon concentration % atm, mean +/- SEM", "procedure": "The effect of mild hypothermia on the neuroprotective effect of xenon (LDH release against xenon concentration, % atm) is shown in FIG. 7. […] Cooling by 4 degrees greatly enhances the potency of xenon in blocking LDH release. […] (red), or at 33° C. (blue). […] Neuronal injury is expressed as a percentage of the maximal LDH release after 75 minutes of OGD and 6 hours of recovery in the absence of either xenon or hypothermia. Points represent mean values, with error bars indicating standard errors.\nFrom the slope of such a plot the enthalpy change of the process can be calculated, its size being a measure of the temperature dependence. The data in red show the effect of temperature on LDH release in the absence of xenon. The reduction of release as the temperature is reduced is expected but modest. […] Hypothermia therefore appears to greatly enhance the neuroprotective effects of xenon."}, "[3]": {"tested_on": "Seven day old postnatal Sprague-Dawley rats", "assay": "Neonatal asphyxia model, xenon during or 2 h after hypoxia (Example 1)", "format": "in vivo, rat", "procedure": "Seven day old postnatal Sprague-Dawley rats underwent right common carotid artery ligation under surgical anaesthesia (1%-1.5% isoflurane in pure oxygen). After ligation, the animals were returned to their mothers and placed in a specially designed area with constant of room temperature (23° C.) and humidity (48%). One hour after surgery, neonatal rats were placed in specially designed chamber with 8% oxygen combined with 0, 20, 40, 60 or 70% Xenon (with nitrogen making up the balance) for 90 min at 37° C. (temperature kept by water bath running outside chambers). At post-experimental day 7, rats (14 day old) were killed and their brains removed. The ratio of right hemisphere weight against left (R/L ratio) was calculated. Rat pups in some groups were allowed to live up to 30 days of postnatal age, at which time their neuromotor function and co-ordination were assessed with established protocols (Neuromotor testing and Rotarod testing).\nThe concentration-dependence of xenon neuroprotection (ratio right hemisphere weight/left against xenon concentration) is shown in FIG. 4. […] Control animals were subjected to carotid ligation but no hypoxia was given. Results are mean±SEM (n=5−8). * P<0.01 vs 8% O2.\nAt postnatal day 7 the right carotid artery was ligated and rat pups were exposed to a hypoxic environment (8% oxygen+70% xe and balance with nitrogen) for 90 min. Thirty days after the insult, rats were evaluated for neuromotor function (A) using a panel that included assays of prehensile traction, strength, and balance beam performance (graded on a 0-9 scale) and (B) balance on a Rotarod, a standard test of balance and neuromotor function. The data point from an individual rat is the sum of three tests. The horizontal bars indicate the median for each group.\nThe neuroprotective effect (ratio of right hemisphere/left) observed with N2 and xenon respectively is shown in FIG. 6, when xenon is administered 2 hours post HI insult. […]"}, "[4]": {"details": "20% xenon alone, 37° C., cortex, 16 h, mean±SD (n=3)"}, "[5]": {"details": "75% xenon, 37° C., 90 min, cortex, 16 h, mean±SD (n=3)"}, "[6]": {"details": "75% xenon, 37° C., 90 min, gyrus, 16 h, mean±SD (n=3)"}, "[7]": {"details": "combination 20% xenon + 35° C. hypothermia, cortex, 16 h, mean±SD (n=3)"}}, "note": "Several values for one entry are separate records, joined by “and”; a condition that tells them apart may be missing. Identical values can stand only once.", "data": [{"smiles": "[Xe]", "note": "[xenon]", "values": [{"measurement": "neuroprotection", "setting": "[1]; 20% xenon alone, 37° C.", "value": "no neuroprotective effect"}, {"measurement": "percentage of apoptosis", "setting": "[1]; [4]", "value": "36%±5.7% and 35.8%±5.7%"}, {"measurement": "percentage of viability", "setting": "[1]; [4]", "value": "51%±7.8%"}, {"measurement": "apoptosis (percentage of total cell number)", "setting": "[1]; [5]", "value": "8.5%±1.6%"}, {"measurement": "viable cell count (percentage of total cell number)", "setting": "[1]; [5]", "value": "80.6%±0.2%"}, {"measurement": "apoptosis (percentage of total cell number)", "setting": "[1]; [6]", "value": "13.9%±2.4%"}, {"measurement": "viable cell count (percentage of total cell number)", "setting": "[1]; [6]", "value": "77.1%±3.3%"}, {"measurement": "anti-necrosis", "setting": "[1]; 75% xenon, 16 and 24 h groups", "value": "not anti-necrotic"}, {"measurement": "anti-apoptosis compared to positive control animals", "setting": "[1]; 75% xenon, 24 and 48 h groups, cortex and gyrus", "value": "statistically significant anti-apoptosis"}, {"measurement": "percentage of viable cells vs. positive controls", "setting": "[1]; 75% xenon, 24 h, cortex and gyrus", "value": "significant increase in the percentage of viable cells"}, {"measurement": "necrosis (percentage of total cell number)", "setting": "[1]; 75% xenon, cortex, 48 h, mean±SD (n=3)", "value": "10.7%±0.4%"}, {"measurement": "anti-necrosis", "setting": "[1]; 75% xenon, gyrus, 48 h", "value": "not however anti-necrotic"}, {"measurement": "neuroprotection", "setting": "[1]; combination 20% xenon + 35° C. hypothermia, both areas of the brain, 16, 24 and 48 h", "value": "profound synergistic neuroprotection"}, {"measurement": "apoptosis (percentage of total cell number)", "setting": "[1]; [7]", "value": "7.2%±2%"}, {"measurement": "viable cells (percentage of total cell number)", "setting": "[1]; [7]", "value": "82.3%±4.9%"}, {"measurement": "type of protection", "setting": "[1]; combination 20% xenon + 35° C. hypothermia, gyrus, 24 h", "value": "anti-necrotic as well as anti-apoptotic protection"}, {"measurement": "concentration of xenon dissolved or dispersed in lipid emulsion", "setting": "[2]", "value": "0.2 to 10 ml per ml of emulsion"}, {"measurement": "temperature dependence of LDH release (van't Hoff plot)", "setting": "neuronal cultures; 12.5% xenon present", "value": "very large and unexpected"}, {"measurement": "ED50 for xenon, OGD-induced LDH release", "setting": "neuronal cultures; 33° C.", "value": "11.5+/−2.0%"}, {"measurement": "ED50 for xenon, OGD-induced LDH release", "setting": "neuronal cultures; 37° C.", "value": "35.9+/−2.15%"}, {"measurement": "concentration-dependence of xenon neuroprotection (ratio right hemisphere weight/left)", "setting": "[3]; 0, 20, 40, 60 or 70% xenon with 8% oxygen for 90 min at 37° C., brains at 14 days", "value": "Neuroprotection is evident even at sub-anaesthetic concentrations"}, {"measurement": "neuroprotective effect (ratio of right hemisphere/left)", "setting": "[3]; 70% Xe+30% O2 for 90 min, given 2 hours after the end of the hypoxic period", "value": "effective in providing neuroprotection"}, {"measurement": "gross anatomical appearance of brain slices", "setting": "[3]; 70% xenon breathed during the 90 min hypoxic period", "value": "look close to normal"}]}]}
